From patent EP4793641A1, “NOVEL METHOD FOR ANALYZING BIOMOLECULAR INTERACTIONS” (Kyoto University, priority 2023, dated 2025)
Read-outs that look alike come from different tables or passages of the source. Residues, ends and D or L forms follow the SMILES beside them. *: point of attachment. tBu = CC(C)(C)*

Biological target: T1, interactions between Talin 1 (TLN1) and integrin subunit beta (ITGB) (Homo sapiens, UniProt Q9Y490)
T1 construct: LgBit or SmBit (N-terminal of the HaloTag); made in house
Assay: Flip-flop detection mechanism on DNA origami (LgBit/SmBit luminescence), inhibitor screening
Assay type: biochemical
Conditions: inhibition of binding between TLN1 and ITBG; for IC50: read-out: Inhibitory activity
Source text: Two types of systems, i.e., flip-flop detection mechanism and switch detection mechanism, were constructed by using HaloTag, LgBit, SmBit, TLN1, and ITGB. Each of TLN1 (Uniprot ID: Q9Y490) and ITGB1 (Uniprot ID: P05556) was cloned from the registered genetic information. HaloTAg has three chemically modifiable locations at a ligand recognition site, C-terminus, and N-terminus. In this Example, a single-stranded DNA for attaching to DNA origami was connected to a ligand recognition site of HaloTag, a subunit of an interaction complex was connected to the C-terminus, and LgBit or SmBit was connected to the N-terminus.
The outline of the system is disclosed in Figure 23. When TLN1 and ITBG are in a bound state in this system, LgBit and SmBit are at spatially separated positions from each other, with a HaloTag interposed therebetween. In this regard, if an inhibitor is added, complex formation of TLN1 and ITBG is inhibited. As a result, a LgBit-SmBit complex can be formed, and a luminescence reaction progresses.
As a candidate drug for inhibiting the binding between TLN1 and ITBG, peptide inhibitors consisting of 13 amino acids prepared by modifying amino acids in an intracellular region of ITGB3 have been designed (Shen B. et al., A directional switch of integrin signaling and a new antithrombotic strategy. Nature 503, 131-135 (2013)). IC50 values for the peptides shown in the following table were calculated by using the flip-flop detection mechanism described in Example 11 for optimizing the sequence. In this manner, the effect of a large number of compounds on the interaction with a target protein can be readily analyzed in the system of the present disclosed.

| Structure (SMILES) | IC50 | also measured |
| --- | --- | --- |
| C[C@H](NC(=O)[C@H](CCCNC(=N)N)NC(=O)[C@H](C)NC(=O)[C@H](CCCNC(=N)N)NC(=O)[C@H](CCC(=O)O)NC(=O)[C@H](CCC(=O)O)NC(=O)[C@H](CCC(=O)O)NC(=O)[C@H](Cc1ccccc1)NC(=O)[C@@H](N)CCCCN)C(=O)N[C@@H](CCCCN)C(=O)N[C@@H](Cc1c[nH]c2ccccc12)C(=O)N[C@@H](CC(=O)O)C(=O)N[C@H](C(=O)O)[C@@H](C)O [FIYM45] (H-KFEEERARAKWDT-OH) | 314 µM |  |
| CSCC[C@H](NC(=O)[C@H](Cc1c[nH]c2ccccc12)NC(=O)[C@H](CCCCN)NC(=O)[C@H](CS)NC(=O)[C@H](CC(N)=O)NC(=O)[C@H](CCSC)NC(=O)[C@H](CCCCN)NC(=O)[C@H](CCC(=O)O)NC(=O)[C@H](CCCCN)NC(=O)[C@H](CCC(=O)O)NC(=O)[C@H](Cc1ccccc1)NC(=O)[C@@H](N)CCCCN)C(=O)N[C@@H](CCCNC(=N)N)C(=O)O [FIYM12] (H-KFEKEKMNCKWMR-OH) |  | Inhibitory activity: no inhibition |
| CC[C@H](C)[C@H](NC(=O)[C@@H]1CCCN1C(=O)[C@H](CC(N)=O)NC(=O)[C@H](CCC(=O)O)NC(=O)CNC(=O)[C@@H](NC(=O)[C@H](CC(=O)O)NC(=O)[C@H](Cc1c[nH]c2ccccc12)NC(=O)[C@H](CCCCN)NC(=O)[C@H](C)NC(=O)[C@H](CC(N)=O)NC(=O)[C@H](CCSC)NC(=O)[C@H](CCCCN)NC(=O)[C@H](CCC(=O)O)NC(=O)[C@H](CCCCN)NC(=O)[C@H](CCC(=O)O)NC(=O)[C@H](Cc1ccccc1)NC(=O)[C@H](CCCCN)NC(=O)[C@H](C)NC(=O)[C@H](Cc1ccccc1)NC(=O)[C@@H](N)CCC(=O)O)[C@@H](C)O)C(=O)N[C@@H](Cc1ccc(O)cc1)C(=O)N[C@@H](CCCCN)C(=O)O [FIYM7] (H-EFAKFEKEKMNAKWDTGENPIYK-OH) |  | Inhibitory activity: no inhibition |
| CSCC[C@H](NC(=O)[C@H](CCCCN)NC(=O)[C@H](CCC(=O)O)NC(=O)[C@H](CCCCN)NC(=O)[C@H](CCC(=O)O)NC(=O)[C@H](Cc1ccccc1)NC(=O)[C@@H](N)CCCNC(=N)N)C(=O)N[C@@H](CC(N)=O)C(=O)N[C@@H](CS)C(=O)N[C@@H](CCCCN)C(=O)N[C@@H](Cc1c[nH]c2ccccc12)C(=O)N[C@@H](CCSC)C(=O)N[C@H](C(=O)O)[C@@H](C)O [FIYM26] (H-RFEKEKMNCKWMT-OH) | 76.9 µM |  |
| CSCC[C@H](NC(=O)[C@H](CCCCN)NC(=O)[C@H](CCC(=O)O)NC(=O)[C@H](CCCCN)NC(=O)[C@H](CCC(=O)O)NC(=O)[C@H](Cc1ccccc1)NC(=O)[C@H](CCCCN)NC(=O)[C@H](Cc1c[nH]cn1)NC(=O)[C@H](Cc1c[nH]cn1)NC(=O)[C@H](Cc1c[nH]cn1)NC(=O)[C@H](Cc1c[nH]cn1)NC(=O)[C@H](Cc1c[nH]cn1)NC(=O)[C@H](Cc1c[nH]cn1)NC(=O)[C@@H](N)CCSC)C(=O)N[C@@H](CC(N)=O)C(=O)N[C@@H](CS)C(=O)N[C@@H](CCCCN)C(=O)N[C@@H](Cc1c[nH]c2ccccc12)C(=O)N[C@@H](CCSC)C(=O)N[C@H](C(=O)O)[C@@H](C)O [FIYM49] (H-MHHHHHHKFEKEKMNCKWMT-OH) |  | IC50 (µM): 107 µM |
| CSCC[C@H](NC(=O)[C@H](CCCCN)NC(=O)[C@H](CCC(=O)O)NC(=O)[C@H](CCCCN)NC(=O)[C@H](CCC(=O)O)NC(=O)[C@H](Cc1ccccc1)NC(=O)[C@@H](N)CCCCN)C(=O)N[C@@H](CC(N)=O)C(=O)N[C@@H](CSC(C)(C)C)C(=O)N[C@@H](CCCCN)C(=O)N[C@@H](Cc1c[nH]c2ccccc12)C(=O)N[C@@H](CCSC)C(=O)N[C@H](C(=O)O)[C@@H](C)O [FIYM40] (H-KFEKEKMNC(tBu)KWMT-OH) | 110 µM |  |
| CSCC[C@H](NC(=O)[C@H](C)NC(=O)[C@H](CCCCN)NC(=O)[C@H](CS)NC(=O)[C@H](CC(N)=O)NC(=O)[C@H](CCSC)NC(=O)[C@H](CCCCN)NC(=O)[C@H](CCC(=O)O)NC(=O)[C@H](CCCCN)NC(=O)[C@H](CCC(=O)O)NC(=O)[C@H](C)NC(=O)[C@@H](N)CCCCN)C(=O)N[C@H](C(=O)O)[C@@H](C)O [FIYM46] (H-KAEKEKMNCKAMT-OH) | 474 µM |  |
